Results as given in patent publication US12527782B2, “Use of hexokinase 2/mitochondria-detaching compounds for treating hexokinase-2 (HK2)-expressing cancers” (Vidac Pharma Ltd., priority 2016, dated 2026).
“Also recorded” adds a separate entry of the source.

Experiments:
[1] = test system: panel of 57 patient-derived tumors and cancer cell lines; assay: CFA panel of 57 patient-derived tumors and cancer cell lines; type: cell-based, human
Description: (§1) CFA was performed by Charles River Laboratories (Freiburg, Germany) in 96-well plate format according to a modified two-layer soft agar assay. The origin of the tumor xenografts has been described (Fiebig et al. 1989, incorporated herein by reference). The list of tumors used in this study is detailed in Table 1.

[2] = biological target: T1, HK1 association with the mitochondria (Homo sapiens, UniProt P19367); assay: Western Blot of mitochondrial fraction, HK1 in A431 cells; type: cell-based; conditions: similar experimental setup, data not shown
T1 construct: human skin SCC A431 cells (which express both HK1 and HK2); endogenous in cells; host or cells: A431
Description: A431 cells were treated for 2 hours at 37° C. with various concentrations of Formula C in medium without FCS and 2 mM L-Gln. Mitochondria were isolated using Mitochondria Isolation Kit (Thermo Fisher Scientific, Rockford, IL) followed by a WB. Semi-quantification of the WB was done with Imagequant TL software v8.1 (GE healthcare Life Sciences, Little Chalfont, United Kingdom). TIM22 was used as a loading control for mitochondria. Cyclophilin A (PPIA) was used as a cytosolic marker.
Antibodies used: anti-rabbit HK1 (C-20245) and HK2 (C-28765) from CST (Danvers, MA), anti-rabbit PPIA (ab41684, Abcam), anti-rabbit TIM22 (14927-1-AP, Proteintech Group Inc., Rosemont, IL), anti-rabbit Cytochrome C (PA1118, Boster Biological Technology, Pleasanton, CA). Detection was performed using secondary antibodies: peroxidase-conjugated Affinipure goat anti-rabbit IgG (H+L) or goat anti-mouse IgG (H+L) (111-035-003 and 115-035-003, Jackson ImmunoResearch, West Grove, PA), and development was using the ECL kit WesternBright™ ECL (K-12045-D10, Advansta, Menlo Park, California, USA).

[3] = test system: Leukemia (AML) LEXFAM OCI-AML2; assay: CFA, LEXFAM OCI-AML2; type: cell-based, human; conditions: Cell line/CFA
Description: as §1

Prostate PC-3 = assay: XTT cell viability assay, PC-3; type: cell-based, human; conditions: Cell line/XTT
Description: For XTT assays, cells were plated in 96-well plates (5,000 cells per well) for 24 hours. Cells were then incubated with different concentrations of Formula C in triplicates for 72 hr in DMEM supplemented with 0.5% FCS and 5 mM Glucose. Cell viability was evaluated using 2,3-bis-(2-methoxy-4-nitro-5-sulfophenyl)-2H-tetrazolium-5-carboxanilide (XTT)-based colorimetric assay kit (Biological Industries Ltd., Kibbutz Beit-Haemek, Israel). The optical density was measured by an Infinite 200 ELISA reader at 450 nm and reference was measured at 630 nm (Tecan, Männedorf, Switzerland).

[4] = test system: Lung (NSCLC, large) LXFL 430; assay: CFA, LXFL 430; type: cell-based, human; conditions: PDX/CFA
Description: as §1

[5] = test system: Lung (NSCLC, adeno) LXFA 1012; assay: CFA, LXFA 1012; type: cell-based, human; conditions: PDX/CFA
Description: as §1

[6] = test system: Lung (SCLC) LXFS NCI-H727; assay: CFA, LXFS NCI-H727; type: cell-based, human; conditions: Cell line/CFA
Description: as §1

[7] = test system: AK/cSCC mouse model of chronic UVB exposure; assay: AK/cSCC mouse model of chronic UVB exposure: histopathology and IHC of epidermis; type: in vivo; conditions: for HK2 protein levels in AK areas (IHC): 5% Formula C
Description: The formulation ingredients for vehicle, 2.5%, and 5% Formula C ointment consisted of: 32% Gelucire44/14® (Gattefosse, Saint-Priest, France), and 68% combined Labrasol® (Gattefosse, Saint-Priest, France) with corresponding amount of Formula C (w/w). New ointments were prepared every 2 weeks. The 40% topical solution was prepared just prior to use by mixing (w/w) 60% propylene glycol (Sigma, St. Louis, MO, USA) with 40% Formula C.
Histopathological analysis and IHC was performed according to standard protocols. Primary antibodies used: rabbit anti-HK1 and rabbit anti-HK2 (C35C4 and C64G5, CST, Danvers, MA), rabbit anti cleaved caspase 3 (PP229, Biocare Medical, Concord, CA), Secondary antibody was goat anti-Rabbit IgG(H+L) (474-1506, KPL, Gaithersburg, MD). Rabbit anti-CD3 (SP7), rabbit anti-F4/80 (SB-M3072, SB-M4152, Nordic Biosite, Taby, Sweden), mouse anti-Langerin/CD207 (DDX0361, Dendritics, Lyon, France). For these three primary antibodies, a polymer system was used as a secondary antibody (KDB-10046 and KDB-10007, Nordic Biosite, Taby, Sweden). Semi-quantitative analysis was done in a blinded manner by a single experienced pathologist scoring ×40 high power fields, 7 different fields per slide.
The effect of Formula C on cell proliferation and apoptosis was tested in an AK/cSCC mouse model of chronic UVB exposure. Forty-eight SKH-1 hairless female mice were chronically exposed to UVB radiation for 16 weeks. By that time, more than 60% of the animals had developed at least one SCC lesion. Three days after the final irradiation dose, the mice were randomly assigned to 1 of 4 treatment groups (N=12 mice/group) and a 50-day treatment phase started. Treatment groups included: vehicle, 2.5% or 5% Formula C ointment applied once-daily for 50 days, or 40% Formula C topical solution applied once-daily for the first 5 days of every three-week cycle (total of three treatment cycles).

Prostate PRXF MRI-H-1579 = assay: CFA, PRXF MRI-H-1579; type: cell-based, human; conditions: Cell line/CFA
Description: as §1

T1 sequence (P19367 whole entry): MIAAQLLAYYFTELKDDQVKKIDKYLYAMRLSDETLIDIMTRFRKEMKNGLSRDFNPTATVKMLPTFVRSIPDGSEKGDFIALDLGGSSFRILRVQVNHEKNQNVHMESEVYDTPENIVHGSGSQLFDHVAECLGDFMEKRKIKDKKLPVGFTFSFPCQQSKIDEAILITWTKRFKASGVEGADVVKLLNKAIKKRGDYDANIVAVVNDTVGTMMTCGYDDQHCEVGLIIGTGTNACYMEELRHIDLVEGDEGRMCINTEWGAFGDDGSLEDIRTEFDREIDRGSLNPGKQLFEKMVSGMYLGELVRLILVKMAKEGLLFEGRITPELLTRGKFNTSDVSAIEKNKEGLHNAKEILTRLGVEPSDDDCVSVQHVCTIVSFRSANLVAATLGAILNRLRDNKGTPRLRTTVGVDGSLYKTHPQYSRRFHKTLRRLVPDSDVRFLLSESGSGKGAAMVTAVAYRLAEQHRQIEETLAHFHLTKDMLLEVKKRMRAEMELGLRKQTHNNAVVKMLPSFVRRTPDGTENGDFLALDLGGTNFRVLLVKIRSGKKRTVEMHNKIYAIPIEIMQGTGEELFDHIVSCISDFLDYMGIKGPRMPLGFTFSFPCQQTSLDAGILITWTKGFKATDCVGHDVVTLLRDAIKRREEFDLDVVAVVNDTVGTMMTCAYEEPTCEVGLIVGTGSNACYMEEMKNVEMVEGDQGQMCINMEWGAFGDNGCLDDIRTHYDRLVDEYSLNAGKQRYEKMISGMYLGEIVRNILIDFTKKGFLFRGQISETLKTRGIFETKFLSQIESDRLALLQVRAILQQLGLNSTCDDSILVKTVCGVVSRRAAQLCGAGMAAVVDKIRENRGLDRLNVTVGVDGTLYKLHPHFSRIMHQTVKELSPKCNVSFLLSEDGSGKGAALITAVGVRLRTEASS

CC/C=C\CC1C(=O)CCC1CC(=O)Oc1cccc2cccnc12 (centres unmarked) [Formula C]
share of tested cancer types with strong anti-proliferation effect (IC50<2 uM) [1]: 70%
HK1 association with the mitochondria [2]: not affected
IC50 [3]: 985 nM
IC50 (Prostate PC-3): 1200 nM
IC50 [4]: 237 nM
IC50 [5]: 1360 nM
IC50 [6]: 835 nM
cleaved caspase-3 positive cells (IHC), apoptosis in epidermis ([7]; UVB-exposed SKH-1 mice, Day 50): induces apoptosis; also recorded: statistically significant induction of apoptosis
mitotic index in AK regions of the skin (epidermis) ([7]; UVB-exposed SKH-1 mice, Day 50, all Formula C treatment groups vs vehicle): reduces cell proliferation; also recorded: significantly reduced
epidermal thickness (histopathology) ([7]; UVB-exposed SKH-1 mice, topical treatment, data not shown): thinner epidermis
HK2 staining in epidermis (IHC) ([7]; UVB-exposed mice, 5% Formula C ointment, 50 days of treatment): decreases after 50 days; also recorded: HK2 staining levels are low
HK2 protein levels in AK areas (IHC) ([7]; UVB-exposed mice, 2 days of treatment, satellite study): dramatic decrease in HK2 protein levels
HK2 protein levels in AK areas (IHC) ([7]; UVB-exposed mice, one day of treatment, data not shown): did not show this effect
IC50 (Prostate PRXF MRI-H-1579): 1660 nM
